Source: ChEMBL document CHEMBL3792312, “Synthesis and docking studies of pyrazine-thiazolidinone hybrid scaffold targeting dormant tuberculosis” (Bioorg Med Chem Lett, 2016)
In brackets after ≈: the same amount, converted by molar mass.

Key:
[1] = test system: Mycobacterium tuberculosis; experiment: Antitubercular activity against dormant Mycobacterium tuberculosis H37Ra at 30 ug after 12 days by XTT-Menadione assay; type: functional
[2] = test system: Mycobacterium tuberculosis; experiment: Antitubercular activity against dormant Mycobacterium tuberculosis H37Ra at 10 ug after 12 days by XTT-Menadione assay; type: functional
[3] = test system: Mycobacterium tuberculosis; experiment: Antitubercular activity against dormant Mycobacterium tuberculosis H37Ra at 3 ug after 12 days by XTT-Menadione assay; type: functional
[4] = test system: Mycolicibacterium smegmatis; experiment: Antitubercular activity against dormant Mycobacterium smegmatis MC2 155 at 30 ug after 12 days by XTT-Menadione assay; type: functional, str. MC2 155
[5] = test system: Mycolicibacterium smegmatis; experiment: Antitubercular activity against dormant Mycobacterium smegmatis MC2 155 at 10 ug after 12 days by XTT-Menadione assay; type: functional, str. MC2 155
[6] = test system: Mycolicibacterium smegmatis; experiment: Antitubercular activity against dormant Mycobacterium smegmatis MC2 155 at 3 ug after 12 days by XTT-Menadione assay; type: functional, str. MC2 155
Escherichia coli [7] = experiment: Antibacterial activity against Escherichia coli at 30 ug after 8 hrs; type: functional
Escherichia coli [8] = experiment: Antibacterial activity against Escherichia coli at 10 ug after 8 hrs; type: functional
Escherichia coli [9] = experiment: Antibacterial activity against Escherichia coli at 3 ug after 8 hrs; type: functional
Pseudomonas fluorescens [10] = experiment: Antibacterial activity against Pseudomonas fluorescens at 30 ug after 8 hrs; type: functional
Pseudomonas fluorescens [11] = experiment: Antibacterial activity against Pseudomonas fluorescens at 10 ug after 8 hrs; type: functional
Pseudomonas fluorescens [12] = experiment: Antibacterial activity against Pseudomonas fluorescens at 3 ug after 8 hrs; type: functional
Staphylococcus aureus [13] = experiment: Antibacterial activity against Staphylococcus aureus at 30 ug after 12 hrs; type: functional
Staphylococcus aureus [14] = experiment: Antibacterial activity against Staphylococcus aureus at 10 ug after 12 hrs; type: functional
Staphylococcus aureus [15] = experiment: Antibacterial activity against Staphylococcus aureus at 3 ug after 12 hrs; type: functional
Bacillus subtilis [16] = experiment: Antibacterial activity against Bacillus subtilis at 30 ug after 12 hrs; type: functional
Bacillus subtilis [17] = experiment: Antibacterial activity against Bacillus subtilis at 10 ug after 12 hrs; type: functional
Bacillus subtilis [18] = experiment: Antibacterial activity against Bacillus subtilis at 3 ug after 12 hrs; type: functional
[19] = test system: Mycobacterium tuberculosis; experiment: Antitubercular activity against dormant Mycobacterium tuberculosis H37Ra after 12 days by XTT-Menadione assay; type: functional, organism-based; settings: 288 h

SMILES | inhibition (INH) [1] | inhibition (INH) [2] | inhibition (INH) [3] | inhibition (INH) [4] | inhibition (INH) [5] | inhibition (INH) [6] | inhibition (INH) (Escherichia coli [7]) | inhibition (INH) (Escherichia coli [8]) | inhibition (INH) (Escherichia coli [9]) | inhibition (INH) (Pseudomonas fluorescens [10]) | inhibition (INH) (Pseudomonas fluorescens [11]) | inhibition (INH) (Pseudomonas fluorescens [12]) | inhibition (INH) (Staphylococcus aureus [13]) | inhibition (INH) (Staphylococcus aureus [14]) | inhibition (INH) (Staphylococcus aureus [15]) | inhibition (INH) (Bacillus subtilis [16]) | inhibition (INH) (Bacillus subtilis [17]) | inhibition (INH) (Bacillus subtilis [18]) | MIC [19]
Nc1nccnc1C(=O)NN1C(=O)CSC1c1ccc(Cl)cc1Cl (stereo not given) | 63.39% | 68.91% | 64.5% | 33.52% | 55.96% | 42.73% | -146.6% | 38.17% | -35.51% | 7.35% | -6.12% | 14.82% | -52.82% | -26.32% | -35.91% | 3.8% | -11.3% | -13.09% | 
Nc1nccnc1C(=O)NN1C(=O)CSC1c1ccc(F)cc1 (stereo not given) | 71.96% | 67.84% | 68.04% | 37.72% | -3.707% | 28.7381% | 50.12% | 45% | 41.47% | 42.8% | 40.76% | 27.83% | 8.99% | -50.49% | -14.5% | 3.63% | 21.54% | 14.29% | 
Cc1cnc(C(=O)NN2C(=O)CSC2c2ccc(O)cc2)cn1 (stereo not given) | 75.49% | 70.55% | 64.79% | 7.295% | 15.78% | 30.34% | 32.37% | -32.72% | -51.23% | -20.73% | 29.13% | 29.07% | -4.04% | 6.02% | -7.09% | 16.21% | 19.81% | -6.172% | 
CO[C@H]1/C=C/O[C@@]2(C)Oc3c(C)c(O)c4c(O)c(c(/C=N/N5CCN(C)CC5)c(O)c4c3C2=O)NC(=O)/C(C)=C\C=C\[C@H](C)[C@H](O)[C@@H](C)[C@@H](O)[C@@H](C)[C@H](OC(C)=O)[C@@H]1C [RIFAMPIN] |  |  |  |  |  |  |  |  |  |  |  |  |  |  |  |  |  |  | 2.1 ng/mL (≈ 2.55 nM)
Nc1nccnc1C(=O)NN1C(=O)CSC1c1cccc([N+](=O)[O-])c1 (stereo not given) | 64.96% | 62.55% | 63.89% | 50.45% | -86.9278% | 36.91% | 34.42% | 5.212% | -91.9% | 47.95% | 25.83% | 4.173% | -37.97% | -44.93% | 5.486% | 17.93% | -12.6% | -23.1% | 
Cc1cnc(C(=O)NN2C(=O)CSC2c2ccccc2)cn1 (stereo not given) | 68.38% | 66.69% | 55.04% | 61.3106% | 24.96% | 34.46% | 42.85% | 56.76% | 60.45% | 35.1% | 33.57% | 19.67% | 39.81% | 41.07% | -39.23% | -9.36% | 16.03% | 17.71% | 
Nc1nccnc1C(=O)NN1C(=O)CS[C@H]1c1ccc([N+](=O)[O-])cc1 | 49.69% | 43% | 39.54% | -10.9967% | -28.273% | 34.28% | 37.49% | 57.79% | 42.143% | -20.68% | 24.31% | 37.2% | -21.02% | -46.62% | 16.74% | -19.53% | -1.56% | 0.25% | 
NC(=O)c1cnccn1 [PYRAZINAMIDE] |  |  |  |  |  |  |  |  |  |  |  |  |  |  |  |  |  |  | > 10000 ng/mL
Nc1nccnc1C(=O)NN1C(=O)CSC1c1ccc(O)cc1 (stereo not given) | 70.73% | 69.84% | 65.54% | 13.22% | 27.68% | 36.11% | 15.24% | 14.06% | 56.462% | 43.72% | 16.61% | 30.55% | 43.79% | 40.89% | 25.87% | 4.31% | 16.8% | 13.88% | 
Cc1cnc(C(=O)NN2C(=O)CSC2c2ccc(Cl)cc2)cn1 (stereo not given) | 62.27% | 61.88% | 60.85% | -19.6759% | 24.29% | -84.5144% | 40.4% | 64.64% | 63.05% | 32.81% | 21.51% | 27.78% | 16.66% | -10.67% | -0.64% | -36.6% | -5.89% | -0.29% | 
CN(C)c1ccc(C2SCC(=O)N2NC(=O)c2nccnc2N)cc1 (stereo not given) | 69.04% | 66.92% | 63.27% | -93.9118% | 38.8231% | 34.15% | 40.76% | 62.03% | 49.71% | 34.38% | 22.64% | 35.05% | 56.34% | 9.5% | 31.97% | 0.43% | 9.92% | 3.21% | 
C[C@H]1COC2(CCN(c3nc(=O)c4cc(C(F)(F)F)cc([N+](=O)[O-])c4s3)CC2)O1 [BTZ-043] |  |  |  |  |  |  |  |  |  |  |  |  |  |  |  |  |  |  | 3 ng/mL (≈ 6.95 nM)
COc1ccc(C2SCC(=O)N2NC(=O)c2cnc(C)cn2)cc1OC (stereo not given) | 73.51% | 72.12% | 68.91% | 9.358% | 46.67% | 8.925% | -11.14% | -59.8% | -46.22% | -5.41% | 28.51% | -2.69% | 2.4% | -14.6% | 48.7% | 14.25% | 18.53% | 13.25% | 
O=C(NN1C(=O)CSC1c1ccc(O)cc1)c1cnccn1 (stereo not given) | 53.37% | 45.24% | 40.52% | 45.5719% | 31.9215% | 28.83% | 39.38% | 49.76% | 41.07% | 27.67% | 5.678% | 9.87% | 30.2% | 16.31% | 24.23% | 1.8% | -7.31% | -5.94% | 
Nc1nccnc1C(=O)NN1C(=O)CSC1c1ccc(Cl)cc1 (stereo not given) | 72.85% | 70.78% | 62.36% | 52.67% | 64.17% | 30.65% | 38.45% | -65.92% | -8.913% | -17.98% | 13.99% | 21.22% | -34.8% | 14.12% | 52.81% | 2.22% | -4.06% | -14.42% | 
NNC(=O)c1ccncc1 [ISONIAZID] |  |  |  |  |  |  |  |  |  |  |  |  |  |  |  |  |  |  | 75 ng/mL (≈ 547 nM)
